The test system of this assay is NF-κB. Put plainly: Electrophoretic mobility shift assay of TNF-induced NF-κB activation in cell lines. The settings on record: for Inhibition of TNF-induced NF-κB-activity: preincubation 10 μM, 1 hr, n=3; for Effect on TNF-induced NF-κB-activity of ozonized substance in phosphate-buffered saline: medium concentration in PBS, 100% ozonation state, 1 hr preincubation, TNF 1 ng/mL 15 min. The class given is cell-based, human. The protocol:
A) BHY cells were preincubated with serum-free O3-medium (15 min; the ozonation state is indicated in %) before TNF was added (20 ng/mL, 45 min) and electrophoretic mobility shift assay was performed (NF-κB and Sp-1 binding). The asterisk marks a control reaction in which a 100-fold concentration of unlabeled consensus oligonucleotide was added. B) Cells were treated with O3-medium (HGF-1, 45 min; HeLa, 1 hr) followed by stimulation with TNF (HGF-1, 5 ng/mL for 45 min; HeLa, 1 ng/mL for 15 min). NF-κB-activity normalized to Sp-1 is shown (densitometric analysis). NF-κB-activity after TNF stimulation following preincubation with non-ozonized medium was defined as 100% (dashed line) (n=3, mean±SD). C) Periodontal ligament tissue debris separated into equal-sized portions was incubated (1 hr, 37° C.) with serum-free non-ozonized medium (indicated by “-”) or O3-medium (100% ozonation state, indicated by “+”) followed by 2 hr incubation in fresh medium without ozone. The samples were shock frozen, homogenized and nuclear extracts prepared. Left: Electrophoretic mobility shift assays were performed (NF-κB and Sp-1 binding). The asterisk marks a control reaction in which a 100-fold concentration of unlabeled consensus oligonucleotide was added. Right: Densitometrically measured NF-κB-activity was normalized to Sp-1 (n=3, mean±SD). […] A) HeLa cells were incubated with O3-phosphate-buffered saline (1 hr) followed by TNF stimulation (1 ng/mL, 15 min). The ozonation state is indicated in %. Electrophoretic mobility shift assay was performed to determine NF-κB-activity as well as Sp-1 binding. B) Cells were preincubated (1 hr) with non-ozonized or ozonized amino acids (medium concentration) dissolved in phosphate-buffered saline (100% ozonation state) followed by stimulation with TNF (1 ng/mL, 15 min). The activation of NF-κB was determined by electrophoretic mobility shift assay. C) Densitometric analysis of the NF-κB-activity normalized to Sp-1 is shown (n=3, mean±SD). NF-κB-activity of cells preincubated with non-ozonized amino acids in phosphate-buffered saline and stimulated with TNF was defined as 100% (dashed line). D) HeLa cells were preincubated with non-ozonized or ozonized glucose (medium concentration) followed by TNF stimulation. The NF-κB-activity compared to Sp-1 binding was determined by electrophoretic mobility shift assay. […] The proteasome inhibitor PSI was from Calbiochem (Darmstadt, Germany). A potential toxicity of culture conditions was monitored by cell morphology/count, trypan-blue-exclusion and the Luminescent-Cell-Viability-Assay (Promega, Mannheim, Germany). […] Aqueous ozone was applied to the cells in form of ozonized medium without fetal calf serum (O3-medium) or ozonized phosphate-buffered saline (O3-phosphate-buffered saline) without/with 1 g/L amino acids or 2 g/L glucose. These solutions were treated with gaseous ozone (75 μg/mL, 15 min) using an ozone generator (Ozonosan-photonic, Dr. […], Germany). This condition, which applied to water would result in a final ozone concentration of 20 μg/mL (saturation point), was defined as the 100% ozonation state. For dose response experiments, the solutions were accordingly diluted. The ozone gas concentration was monitored by a photometer integrated in the ozone generator and confirmed by another ozone gas detector (GM-6000-NZL, Anseros, Tubingen, Germany). The ozone concentrations of the respective aqueous solutions were monitored photometrically ([…], England). […] The prototypic immunoglobulin κ-chain oligonucleotide was used as a probe and labeled with the Klenow fragment of DNA polymerase I (Roche, Penzberg, Germany) together with [α-^32P]dCTP (PerkinElmer-LifeSciences, Brussels, Belgium). The Sp-1 consensus oligonucleotide (Promega) was labeled with [γ-^32P]ATP (PerkinElmer-LifeSciences) and T4-polynucleotide-kinase (Roche). Samples were run on non-denaturing 4% polyacrylamide gels and analyzed by autoradiography.

“Also recorded” adds a separate entry of the source. Peptide text beside a SMILES is read from it. * marks the point of attachment. Cbz = O=C(OCc1ccccc1)*; OtBu = CC(C)(C)O*

For the molecule `CC[C@H](C)[C@H](NC(=O)OCc1ccccc1)C(=O)N[C@@H](CCC(=O)OC(C)(C)C)C(=O)N[C@@H](C)C(=O)N[C@H](C=O)CC(C)C` [PSI, reference compound] (Cbz-IE(OtBu)AL-aldehyde), the “Inhibition of TNF-induced NF-κB-activity” value by setting is: (BHY cells) 68±7%; (HeLa cells) 75±6%. For `CSCC[C@H](N)C(=O)O` [methionine], the “Effect on TNF-induced NF-κB-activity of ozonized substance in phosphate-buffered saline” value (“Effect on TNF-induced NF-κB-activity” below) is “clear inhibition”. With `N[C@@H](Cc1c[nH]c2ccccc12)C(=O)O` [tryptophan], the “Effect on TNF-induced NF-κB-activity” value is on record as “blocked the NF-κB signal almost completely; also recorded: most effective”. In the case of `C[C@H](N)C(=O)O` [alanine], the “Effect on TNF-induced NF-κB-activity” value was “slight reduction”. On the same count and under the same terms, next, `NCC(=O)O` [glycine]: “did not have any effect”; `N[C@@H](CS)C(=O)O` [cysteine]: “blocked the NF-κB signal almost completely; also recorded: most effective”.

For the origin of these results see patent US7955623B2, “Pharmaceutical preparations for treating inflammatory diseases” (priority 2008, dated 2011).
